Experimental data reported in patent US20240174634A1, “Aldehyde Dehydrogenase Inhibitors and Their Therapeutic Use” (priority 2020, published 2024).

Experiment: In vivo pharmacokinetics in female BALB/c mice
Design: species or system mouse
Conditions: for AUC / Cmax: po, 5 mg/kg orally by gavage
Experimental: All procedures involving animals were performed in accordance with national Home Office regulations under the Animals (Scientific Procedures) Act 1986 and within guidelines set out by the Institute's Animal Ethics Committee and the United Kingdom Coordinating Committee for Cancer Research's ad hoc Committee on the Welfare of Animals in Experimental Neoplasia. Female BALB/c mice (Charles River Laboratories) at 6 weeks of age were used for the PK analyses. The mice were dosed orally by gavage (5 mg/kg in DMSO:water 1:19 v:v; n=6) or intravenously in the tail vein (1 mg/kg in DMSO:Tween20:saline 10:1:89 v:v:v; n=6). Blood samples (˜20 μL) were taken from the tail vein from each group of mice (2 groups, 3 mice/group) alternated at 5, 15 and 30 minutes, 1, 2, 4 and 6 and 8 hours after dosing. For clarity, group 1 was bled at 5 minutes, 30 minutes, 2 hours and 6 hours; group 2 was bled at 15 minutes, 1 hour, 4 hours and 8 hours. Plasma samples were snap frozen in liquid nitrogen and then stored at −80° C. prior to analysis.
Test compound solutions (1 mg/mL in DMSO) were used to make stock Standard Curve (SC) and Quality Control (QC) solutions at appropriate concentrations. Blank plasma was spiked with stock solutions to produce a 9-point standard curve ranging from 1.5-10,000 […]; with 2 QC concentrations within this range and where the DMSO concentration was 10% of the plasma volume. Plasma PK samples, Standards and QC's were added to individual Eppendorf tubes and DMSO (10% of plasma volume) was added to the plasma PK samples. SC, QC and plasma samples were extracted with methanol (100 μL) containing internal standard. Following protein precipitation, the samples were centrifuged for 10 minutes in a refrigerated centrifuge (4° C.) at 14000 rpm. The supernatants were removed to a 96-well plate and centrifuged for a further 10 minutes in a refrigerated centrifuge (4° C.) at 3700 rpm. Samples were analysed by Liquid Chromatography Mass Spectrometry (LC-MS/MS) for the compound plasma concentrations. Non-compartmental analysis was performed on plasma concentration data using the Excel macro PK Solver 2.0.

Compound | F (5 mg/kg po vs 1 mg/kg iv) [%] | clearance (mouse, plasma, iv, 1 mg/kg intravenously, read-out: Cl iv) [mL/min/kg] | AUC (mouse, plasma) [µM·h] | Cmax (mouse, plasma) [µM]
O=C1CCc2cc(NC(=O)c3scnc3-c3cccc(F)c3)ccc2N1 [ALDHI-1003, 4-(3-fluorophenyl)-N-(2-oxo-3,4-dihydro-1H-quinolin-6-yl)thiazole-5-carboxamide] | 100 | 22.1 | 13.3 | 6.1
CN(CCOc1ccc2c(c1)CCC(=O)N2)C(=O)c1cccc(F)c1 [ALDHI-3008, 3-fluoro-N-methyl-N-[2-[(2-oxo-3,4-dihydro-1H-quinolin-6-yl)oxy]ethyl]benzamide] |  |  | 1.5 | 1.8
